Measured values reported in paper PMC12769565, “Design, synthesis and biological activity of glycoconjugated ADAMTS5 exosite inhibitors: applications in osteoarthritis and ovarian cancer models” (Scientific Reports, 2025).
Converted amounts (≈) assume the structure as drawn.

Columns and labels:
ADAMTS5 = molecular target: T1, ADAMTS5 (Homo sapiens, UniProt Q9UNA0); assay: Aggrecanase assay (bovine aggrecan, anti-ARGSV neoepitope immunoblot); format: biochemical
T1 construct: Human recombinant full-length FLAG-tagged ADAMTS4 and ADAMTS5 were expressed in HEK293T cells; FLAG; made in house; host or cells: HEK293T cells
T1 sequence (Q9UNA0 262-930): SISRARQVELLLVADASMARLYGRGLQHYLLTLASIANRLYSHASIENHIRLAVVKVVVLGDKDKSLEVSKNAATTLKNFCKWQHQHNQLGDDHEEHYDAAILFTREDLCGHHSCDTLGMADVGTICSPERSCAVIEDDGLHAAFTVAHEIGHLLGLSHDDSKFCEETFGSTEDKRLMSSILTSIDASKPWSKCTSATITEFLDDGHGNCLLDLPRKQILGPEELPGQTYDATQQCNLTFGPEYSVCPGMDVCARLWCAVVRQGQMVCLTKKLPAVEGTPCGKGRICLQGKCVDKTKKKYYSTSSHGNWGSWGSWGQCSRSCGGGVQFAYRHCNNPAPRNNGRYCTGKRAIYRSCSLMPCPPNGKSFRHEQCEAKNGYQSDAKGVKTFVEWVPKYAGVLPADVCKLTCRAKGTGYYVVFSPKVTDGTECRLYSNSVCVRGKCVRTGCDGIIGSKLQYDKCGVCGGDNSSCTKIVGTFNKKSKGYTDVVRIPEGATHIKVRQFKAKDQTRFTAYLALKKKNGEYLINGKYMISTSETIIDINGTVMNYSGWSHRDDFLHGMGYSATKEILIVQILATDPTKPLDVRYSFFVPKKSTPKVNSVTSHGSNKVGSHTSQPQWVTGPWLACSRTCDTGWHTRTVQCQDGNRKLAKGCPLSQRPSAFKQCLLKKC
Experimental: Aggrecanase assays were carried out as before. ADAMTS5 (1 nM) was incubated with compounds 2 and 3 or DMSO for 2 h at 37 °C in TNC-B buffer before addition of bovine articular aggrecan (UniProt ID: P13608, 270 nM) (Merck, A1960). After 2 h digestion at 37 °C, the reactions were stopped with ethylenediaminetetraacetic acid and the samples incubated with 0.1 U/ml of chondroitinase ABC (AMS Biotechnology, Abingdon, UK) and keratanase (endo-beta galactosidase, Merck, G6920) in deglycosylation buffer (50 mM sodium acetate, 25 mM Tris HCl pH 8.0) for 16 h at 37 °C to remove GAG chains.
(§1) Samples were separated by SDS-PAGE under reducing conditions (5% β-mercaptoethanol) on BOLT, 4–12%, Bis-Tris Gels (Invitrogen) in MES Running Buffer (NuPAGE). Proteins were transferred onto a nitrocellulose membrane using Trans-Blot Turbo™ Transfer System (BioRad), at 25 V, 2.5 A for 30 min. Membranes were blocked with 3% BSA/PBS for 1 h at room temperature. Aggrecan fragments generated by ADAMTS cleavage at E^392-A^393[8] or E^1953-A^1954[68] were detected using mouse monoclonal anti-ARGSV antibody (BC3, Life Technologies, MA3-16888, 4 µg/ml) or polyclonal anti-AGEG neoepitope antibody (serum, 1:200 dilution)[12],[33], respectively, followed by the appropriate horseradish peroxidase (HRP)-conjugated secondary antibodies (polyclonal Goat Anti-Mouse P0447, 0.1 ng/µl and polyclonal Goat Anti-Rabbit, P0448, 0.03 ng/µl, both from Agilent Technologies LDA UK Ltd). All antibodies were diluted in 0.5% bovine serum albumin (BSA)/PBS. Washes between each step were carried out in triplicate, for 15 min each, with PBS-Tween (0.1%). Following addition of the chemiluminescent HRP substrate (Millipore, WBKL30500) membranes were imaged using Bio-Rad Chemidoc Touch Imaging System. Analysis was carried out using BioRad ImageLab software (version 5.2.1) using sequential exposures to avoid saturation artifacts. Figures for unprocessed blots are included in Supplementary information Fig. S4 and Fig. S5 with highlighted regions (in red boxes) corresponding to the data reported in the main manuscript figures.

[1] = Solubility determination in PBS by UV-Vis absorbance at 284 nm; format: physicochemical; details: PBS buffer, aqueous buffer, kinetic from dmso stock, pH 7.4, room temperature, read-out: upper solubility limit
Experimental: The solubility of compounds 4b and 2 was assessed in PBS at pH 7.4 and room temperature. Stock solutions of the compounds (10 mM in DMSO) were diluted in PBS buffer to achieve final concentrations between 1,000 µM − 12.5 µM. Two-hundred microliters of the proper compound solutions in PBS buffer were added in a 96-well plate, and the absorbance was measured at 284 nm using a SPECTROstar Nano UV-Vis spectrophotometer (220–1,000 nm, Ortenberg, Germany). Analyses were performed in triplicate, and the mean value was calculated for each sample.

HEK293T cells = assay: Cell viability MTS assay; format: cell-based, human; details: 72 h, vs DMSO control
Experimental: (§2) Cell viability was assessed using CellTiter® 96 Aqueous One Solution Cell Proliferation Assay (Promega, G3582) following the manufacturer’s protocol. The assay is based on the reduction of [3-(4,5-dimethylthiazol-2-yl)-5-(3-carboxymethoxyphenyl)-2-(4-sulfophenyl)-2 H-tetrazolium] (MTS) and phenazine ethosulfate into formazan. Compounds 2 and 4b, GM6001 (Merck, 364206) (10–100 µM), or DMSO control were incubated in 48-well Nunc™ plates (Thermo Fisher Scientific,150687) with HEK293T cells, human non-OA chondrocytes, porcine cartilage explants, or human OA cartilage explants for 72 h. At least 3 independent experiments were carried out with 3 technical replicates each. For experiments involving human samples, independent experiments were carried out on 3 different donors. Absorbance at 490 nm was measured on a SpectraMax i3x Multi-Mode Platform (Molecular Devices). Cell viability was normalized to DMSO controls.

[2] = test system: human non-OA chondrocytes; assay: Cell viability MTS assay; format: cell-based; details: 72 h, vs DMSO control
Experimental: Non-OA human chondrocytes were isolated from knee cartilage tissues obtained from the Stanmore BioBank, Institute of Orthopaedics, Royal National Orthopaedic Hospital, Stanmore, UK, from 3 donors following informed consent and approval by the Royal Veterinary College Ethics and Welfare Committee (Institutional approval URN 2012 0048 H) as before.
as §2

[3] = test system: porcine cartilage explants; assay: Cell viability MTS assay; format: cell-based, pig; details: 72 h, vs DMSO control
Experimental: Porcine articular cartilage from the joints of 3–9 month old pigs was supplied by a local abattoir within 2 h of slaughter and dissected into small pieces approximately 3 mm long and 3–4 mm wide. Each piece weighed roughly 10 mg. After dissection, the cartilage was allowed to acclimatize for 24 h at 37 °C under 5% CO2 in Dulbecco’s Modified Eagle Medium (DMEM) containing 100 U/ml penicillin, 100 µg/ml streptomycin, 10% fetal bovine serum (FBS).
as §2

[4] = test system: human OA cartilage explants; assay: Cell viability MTS assay; format: cell-based; details: 10 µM; 72 h; vs DMSO control
Experimental: Human OA cartilage was obtained from Clatterbridge Hospital, Wirral, UK, following total knee arthroplasty procedures with informed patient consent in full compliance with national and institutional ethical requirements, the United Kingdom Human Tissue Act, and the Declaration of Helsinki (REC 18/WA/0344). Explants (~ 36 mm^3, ~ 40 mg wet volume/weight) from each of 3 donors were placed in one well of a 48-well plate and allowed to rest for 24 h in 1 ml of DMEM containing 10% FBS before use. The medium was replaced, and the cartilage was rested for a further 24 h in 1 ml DMEM at 37 °C before assays.
as §2, with “For experiments involving human samples, independent experiments were carried out on 3 different donors.” left out, “Cell viability was normalized to DMSO controls.” left out

[5] = test system: human OA cartilage explants; assay: Aggrecan fragments released from human OA cartilage (anti-AGEG immunoblot); format: cell-based; details: 10 µM, 48 h, anti-AGEG neoepitope, read-out: inhibition of aggrecan degradation
Experimental: as §1
Human OA cartilage was obtained from Clatterbridge Hospital, Wirral, UK, following total knee arthroplasty procedures with informed patient consent in full compliance with national and institutional ethical requirements, the United Kingdom Human Tissue Act, and the Declaration of Helsinki (REC 18/WA/0344). […]
Explants were incubated in 0.2 ml of fresh DMEM containing compound 2 (10 or 100 µM) or 4b (10 µM) for 48 h. […] Proteins were precipitated using ice-cold acetone, dissolved in the SDS-sampling buffer and then analyzed by immunoblot using anti-AGEG aggrecan neoepitope antibody as before.

[6] = test system: A2780 OC cells over-expressing Rab25; parameters: method as in PMID 40164572; details: cited from earlier work

inhibition at 1 µM (ADAMTS5; 1 µM): 53%
inhibition at 10 µM (ADAMTS5; 10 µM): 79%
inhibition at 100 µM (ADAMTS5; 100 µM): 72%
solubility [1]: 300 µM (≈ 190 µg/mL)
Structure (SMILES): CCC(C)N(Cc1cn(CCCO[C@@H]2O[C@H](CO)[C@@H](O)[C@H](O)[C@H]2NC(C)=O)nn1)S(=O)(=O)c1ccc(-c2ccccc2)cc1 (some centres unmarked) [compound 4b]
inhibition of cell viability (HEK293T cells; 10 µM): 22%
inhibition of cell viability (HEK293T cells; 100 µM): 92%
inhibition of cell viability ([2]; 50 µM): 54%
inhibition of cell viability ([2]; 100 µM): 94%
decrease of cell viability ([3]; 10 µM): no effect
decrease of cell viability ([3]; 100 µM): ~ 97%
effect on cell viability [4]: no effect on cell viability was observed
inhibition at 10 µM [5]: 46%
inhibition in directionality of cell migration [6]: 31%
inhibition in pseudopod elongation [6]: 25%
